Experimental data reported in article PMC7118210 (Frontiers in Pharmacology, 2020).
Read-outs that look alike come from different tables or passages of the source. Blank lines part the entries; values can stand above or below the compound they belong to.

Experiments:
[1] = cited from earlier work
[2] = Single-dose pharmacokinetics in dogs (plasma, UHPLC/MS/MS); type: in vivo, Beagle dogs; conditions: for MRT last: read-out: MRT0-t; for MRT inf: read-out: MRT0-∞
Source text: Sixty healthy adult Sprague Dawley rats (180-220 g, half male and female) were purchased from the Guangdong Medical Laboratory Animal Center (Guangzhou, Guangdong, China). Thirty Beagle dogs (10-14 kg, half male and female) were purchased from the […] Laboratory Animal Science & Technology Co., Ltd. (Gaoyao, Guangdong, China). All animals were housed under humanized conditions with free access to food and water, and acclimated to the living conditions for at least one week prior to experimentation at the Laboratory Animal Center of the School of Life Sciences, Sun Yat-sen University. Environmental conditions were maintained at 20°C-25°C, 55% ± 15% relative humidity, 12-h light/dark cycles, and 12 air changes per hour. Prior to experimentation, the animals were fasted overnight with water available ad libitum. All animals were healthy based on physical examination and laboratory analyses performed before and after the experiments. At the end of the experiments, the dogs were returned to the Laboratory Animal Center of School of Life Sciences, Sun Yat-sen University. […] All blood samples were transferred into heparin-treated centrifuge tubes and centrifuged for 10 min at 4,000 rpm and 4°C. All human urine samples were mixed and transferred (4 ml) into storage tubes. All biological samples were stored at -80°C. […] The optimal volume and activity in unit volume of enzyme solution [0.2 M acetic acid/water solution: 0.2 M ammonium acetate/water solution, 15:35 (v/v)] were determined through a pretest of the enzyme (rat plasma, 10 μl, 10 U μl^-1; dog plasma, 10 μl, 10 U μl^-1; human plasma, 20 μl, 20 U μl^-1; human urine, 10 μl, 10 U μl^-1). After enzyme incubation, 10 μl of IS solution was added to the plasma and urine samples (2 μg ml^-1 quercetin 3-β-D-glucoside for rat and dog plasma; 583 ng ml^-1 naringin-D4 and 160 ng ml^-1 naringenin-D4 for human plasma; and 9,710 ng ml^-1 naringin-D4 and 6,000 ng ml^-1 naringenin-D4 for human urine). To each fecal sample, 9-fold methanol-normal saline (2:1, v/v) was added, mixed (18,000 rpm, 15 min) by vortexing and centrifuged (10 min, 9,000 rpm, 4°C). Next, 10 μl IS solution (971 ng ml^-1 naringin-D4 and 600 ng ml^-1 naringenin-D4) was added to the supernatants of feces (200 μl) without enzyme incubation. […] The solid material was dissolved with acetonitrile-water (1:1, v/v) and injected into the ultra high-performance liquid chromatography coupled with triple quadrupole mass spectrometry (UHPLC/MS/MS) system as described below. The analysis of nonclinical and clinical samples was performed with a UHPLC/MS/MS system that consisted of a Shimadzu Nexera X2 ultra high-performance liquid chromatography (UHPLC) (Shimadzu Corp., Kyoto, Japan) coupled with an AB Sciex API4000 triple-quadrupole mass spectrometry (MS/MS) system (AB Sciex, Foster City, CA, USA) equipped with an electrospray ionization source and controlled by Analyst (v. 1.6.2) software. […] The injection volume was 10 μl with the flow rate of 0.3 ml min^-1 for plasma, and 0.4 ml min^-1 for urine and feces. The compounds were detected by multiple reaction monitoring in the negative ion electrospray mode. The electrospray source conditions were as follows: ion source gas1 30 psi, ion source gas2 60 psi, curtain gas 20 psi, collisionally activated dissociation (CAD) gas 8 psi, temperature 500°C, and ion spray voltage -4,500 V. Zero air was used for ion source gas1 and ion source gas2 and nitrogen for curtain gas and CAD gas. […] All pharmacokinetic and excretion parameters were expressed as mean ± standard deviation (SD). All mean and SD values were reported to three significant figures. The pharmacokinetic parameters were calculated using the Phoenix WinNonlin software (Version 6.4, Pharsight Corp., Cary, NC, USA) and compared using the Student's t-test (p < 0.05) in SPSS 18.0 (SPSS Inc., Chicago, IL, USA). […]

[3] = both sexes, Beagle, dog, plasma, po, 3.1 mg/kg
[4] = both sexes, Beagle, dog, plasma, po, 12.4 mg/kg
[5] = both sexes, beagle, dog, plasma, iv, 12.4 mg/kg
[6] = both sexes, beagle, dog, plasma, po, 49.6 mg/kg
[7] = female, Beagle, dog, plasma, iv, 12.4 mg/kg
[8] = female, Beagle, dog, plasma, po, 3.1 mg/kg
[9] = female, Beagle, dog, plasma, po, 12.4 mg/kg
[10] = female, Beagle, dog, plasma, po, 49.6 mg/kg
[11] = male, Beagle, dog, plasma, iv, 12.4 mg/kg
[12] = male, Beagle, dog, plasma, po, 3.1 mg/kg
[13] = male, Beagle, dog, plasma, po, 12.4 mg/kg
[14] = male, Beagle, dog, plasma, po, 49.6 mg/kg
[15] = naringin 3.1 mg kg^-1 p.o. single dose, dog
[16] = naringin 12.4 mg kg^-1 p.o. single dose, dog
[17] = naringin 49.6 mg kg^-1 p.o. single dose, dog

SMILES: C[C@@H]1O[C@@H](O[C@H]2[C@H](Oc3cc(O)c4c(c3)O[C@H](c3ccc(O)cc3)CC4=O)O[C@H](CO)[C@@H](O)[C@@H]2O)[C@H](O)[C@H](O)[C@H]1O [naringin, Naringin]
- cumulative excretion percentage ([1]; aged rats, in the forms of naringin and naringenin, ref Zeng et al., 2019): 19%
- cumulative excretion percentage ([1]; aged rats, in the forms of naringin, naringenin, and 4-hydroxyphenylpropionic acid, ref Zeng et al., 2019): 98%
- cumulative excretion percentage ([1]; rats, in the forms of naringin, naringenin, and 4-hydroxyphenylpropionic acid, ref Liu M. et al., 2012): 21%
- time within which excreted ([1]; rats, ref Liu M. et al., 2012): ≤ 24 h
- half-life ([2]; both sexes, Beagle, dog, plasma, po): 1.41 ± 0.671 h
- AUC(0-inf) [2, 3]: 129 ± 78.2 ng·h/mL
- AUC(0-t) [2, 3]: 108 ± 58.8 ng·h/mL
- Cmax [2, 3]: 39.9 ± 10.4 ng/mL
- Tmax [2, 3]: 1.33 ± 0.258 h
- half-life [2, 3]: 1.84 ± 1.46 h
- MRT last [2, 3]: 2.5 ± 1.05 h
- MRT inf [2, 3]: 3.38 ± 1.88 h
- AUC(0-inf) [2, 4]: 135 ± 35.5 ng·h/mL
- AUC(0-t) [2, 4]: 124 ± 32.2 ng·h/mL
- Cmax [2, 4]: 70.2 ± 16.9 ng/mL
- Tmax [2, 4]: 1 ± 0.316 h
- half-life [2, 4]: 1.31 ± 0.581 h
- MRT last [2, 4]: 1.77 ± 0.371 h
- MRT inf [2, 4]: 2.17 ± 0.633 h
- Tmax ([2]; both sexes, Beagle, dog, plasma, po, dogs, nonclinical p.o. administration studies overall): 1.11 ± 0.344 h
- AUC(0-inf) [2, 5]: 2930 ± 403 ng·h/mL
- AUC(0-t) [2, 5]: 2920 ± 406 ng·h/mL
- Cmax [2, 5]: 5800 ± 946 ng/mL
- Tmax [2, 5]: 0.08 h
- clearance [2, 5]: 71.8 mL/min/kg
- half-life [2, 5]: 1.37 ± 0.347 h
- MRT last [2, 5]: 0.703 ± 0.153 h
- MRT inf [2, 5]: 0.727 ± 0.143 h
- Vd ([2]; both sexes, beagle, dog, plasma, iv, 12.4 mg/kg, read-out: Vd): 8.69 ± 3.35 L/kg
- AUC(0-inf) [2, 6]: 224 ± 104 ng·h/mL
- AUC(0-t) [2, 6]: 211 ± 92.1 ng·h/mL
- Cmax [2, 6]: 107 ± 78.2 ng/mL
- Tmax [2, 6]: 1 ± 0.447 h
- half-life [2, 6]: 1.31 ± 0.293 h
- MRT last [2, 6]: 2.46 ± 1.11 h
- MRT inf [2, 6]: 2.73 ± 1.02 h
- AUC(0-inf) [2, 7]: 3200 ± 337 ng·h/mL
- AUC(0-t) [2, 7]: 3190 ± 344 ng·h/mL
- Cmax [2, 7]: 5860 ± 1070 ng/mL
- Tmax [2, 7]: 0.08 h
- half-life [2, 7]: 1.25 ± 0.317 h
- AUC(0-inf) [2, 8]: 109 ± 67.7 ng·h/mL
- AUC(0-t) [2, 8]: 88.5 ± 40 ng·h/mL
- Cmax [2, 8]: 36.8 ± 12.6 ng/mL
- Tmax [2, 8]: 1.17 ± 0.289 h
- half-life [2, 8]: 1.26 ± 0.633 h
- AUC(0-inf) [2, 9]: 132 ± 36.8 ng·h/mL
- AUC(0-t) [2, 9]: 115 ± 27.9 ng·h/mL
- Cmax [2, 9]: 60.2 ± 10.8 ng/mL
- Tmax [2, 9]: 1 ± 0.1 h
- half-life [2, 9]: 1.42 ± 0.782 h
- AUC(0-inf) [2, 10]: 262 ± 144 ng·h/mL
- AUC(0-t) [2, 10]: 240 ± 128 ng·h/mL
- Cmax [2, 10]: 157 ± 87.5 ng/mL
- Tmax [2, 10]: 1.17 ± 0.289 h
- half-life [2, 10]: 1.13 ± 0.312 h
- AUC(0-inf) [2, 11]: 2640 ± 255 ng·h/mL
- AUC(0-t) [2, 11]: 2640 ± 256 ng·h/mL
- Cmax [2, 11]: 5740 ± 1050 ng/mL
- Tmax [2, 11]: 0.08 h
- half-life [2, 11]: 1.48 ± 0.404 h
- AUC(0-inf) [2, 12]: 149 ± 97.4 ng·h/mL
- AUC(0-t) [2, 12]: 128 ± 76.6 ng·h/mL
- Cmax [2, 12]: 42.9 ± 9.19 ng/mL
- Tmax [2, 12]: 1.5 ± 0.231 h
- half-life [2, 12]: 2.41 ± 1.98 h
- AUC(0-inf) [2, 13]: 137 ± 42.3 ng·h/mL
- AUC(0-t) [2, 13]: 132 ± 40 ng·h/mL
- Cmax [2, 13]: 80.2 ± 17.2 ng/mL
- Tmax [2, 13]: 1 ± 0.5 h
- half-life [2, 13]: 1.2 ± 0.443 h
- AUC(0-inf) [2, 14]: 185 ± 45.5 ng·h/mL
- AUC(0-t) [2, 14]: 181 ± 46.7 ng·h/mL
- Cmax [2, 14]: 56.6 ± 6.83 ng/mL
- Tmax [2, 14]: 0.833 ± 0.577 h
- half-life [2, 14]: 1.5 ± 0.117 h
- CL [2, 15]: 520 ± 257 mL/min/kg
- Vd [2, 15]: 61.2 ± 23.0 L/kg
- CL [2, 16]: 1630 ± 453 mL/min/kg
- Vd [2, 16]: 171 ± 59.4 L/kg
- CL [2, 17]: 4450 ± 2120 mL/min/kg
- Vd [2, 17]: 482 ± 173 L/kg

- half-life ([2]; both sexes, Beagle, dog, plasma, oral, naringenin in dogs, studies overall): 2.03 ± 0.968 h
- lag-time in plasma ([2]; dogs, after p.o. naringin): 1.83 ± 0.923 h
- time for concentrations to increase to Cmax after the lag-time ([2]; dogs, after p.o. naringin): 4.17 ± 1.68 h
SMILES: O=C1C[C@@H](c2ccc(O)cc2)Oc2cc(O)cc(O)c21 [naringenin, Naringenin]
- time within which excreted ([1]; rats, ref Liu M. et al., 2012): ≤ 24 h
